# Assay results published in patent US8048895B2, “Kappa opioid receptor ligands” (priority 2008, dated 2011).
# How the values were obtained:
# Assay type in all cases: biochemical
# [1] = molecular target: T1, cloned human μ opioid receptor (Homo sapiens, UniProt P35372); experiment: Inhibition of DAMGO-stimulated [35S]GTPγS binding
# T1 construct: expressed in transfected cells
# Source text: (§1) Measures of opioid receptor antagonism and specificity were obtained by monitoring the ability of selected test compounds to inhibit stimulation of [^35S]GTPγS binding produced by the selective agonists (D-Ala^2, MePhe^4, Gly-ol^5)enkephalin (DAMGO, mu receptor), cyclo[D-Pen^2, D-Pen^5]enkephalin (DPDPE, delta) and 5,7,8-(−)-N-methyl-N-[7-(1-pyrrolidinyl)-1-oxaspiro[4,5]dec-8-yl]benzeneacetamide (U69,593, kappa) in cloned human receptors, Table 1.
# [2] = molecular target: T2, cloned human δ opioid receptor (Homo sapiens, UniProt P41143); experiment: Inhibition of DPDPE-stimulated [35S]GTPγS binding; conditions: read-out: δ, DPDPE Ke
# T2 construct: expressed in transfected cells
# T2 sequence (P41143 whole entry): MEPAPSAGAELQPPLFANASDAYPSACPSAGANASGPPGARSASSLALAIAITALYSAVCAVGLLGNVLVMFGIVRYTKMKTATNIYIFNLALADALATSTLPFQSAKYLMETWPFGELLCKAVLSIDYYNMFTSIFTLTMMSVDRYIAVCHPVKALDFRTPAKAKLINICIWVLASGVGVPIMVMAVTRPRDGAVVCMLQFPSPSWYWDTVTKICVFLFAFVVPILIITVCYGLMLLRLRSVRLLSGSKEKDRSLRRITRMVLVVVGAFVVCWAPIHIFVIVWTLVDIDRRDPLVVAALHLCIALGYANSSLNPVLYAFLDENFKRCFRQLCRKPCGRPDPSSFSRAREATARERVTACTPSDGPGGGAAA
# Source text: as §1
# [3] = molecular target: T3, cloned human κ opioid receptor (Homo sapiens, UniProt P41145); experiment: Inhibition of U69,593-stimulated [35S]GTPγS binding
# T3 construct: expressed in transfected cells
# T3 sequence (P41145 whole entry): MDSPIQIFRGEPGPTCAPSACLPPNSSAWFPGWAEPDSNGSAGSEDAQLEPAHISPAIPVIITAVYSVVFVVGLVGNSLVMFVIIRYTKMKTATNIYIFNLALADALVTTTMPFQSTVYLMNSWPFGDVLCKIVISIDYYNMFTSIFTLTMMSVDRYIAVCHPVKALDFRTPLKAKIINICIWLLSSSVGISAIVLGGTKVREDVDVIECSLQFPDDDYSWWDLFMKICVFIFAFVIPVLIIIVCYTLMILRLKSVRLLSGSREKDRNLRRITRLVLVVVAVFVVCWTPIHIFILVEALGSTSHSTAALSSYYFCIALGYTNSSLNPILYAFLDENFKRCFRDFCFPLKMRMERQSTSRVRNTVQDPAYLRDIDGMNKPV
# Source text: as §1
# T1 sequence (P35372 whole entry): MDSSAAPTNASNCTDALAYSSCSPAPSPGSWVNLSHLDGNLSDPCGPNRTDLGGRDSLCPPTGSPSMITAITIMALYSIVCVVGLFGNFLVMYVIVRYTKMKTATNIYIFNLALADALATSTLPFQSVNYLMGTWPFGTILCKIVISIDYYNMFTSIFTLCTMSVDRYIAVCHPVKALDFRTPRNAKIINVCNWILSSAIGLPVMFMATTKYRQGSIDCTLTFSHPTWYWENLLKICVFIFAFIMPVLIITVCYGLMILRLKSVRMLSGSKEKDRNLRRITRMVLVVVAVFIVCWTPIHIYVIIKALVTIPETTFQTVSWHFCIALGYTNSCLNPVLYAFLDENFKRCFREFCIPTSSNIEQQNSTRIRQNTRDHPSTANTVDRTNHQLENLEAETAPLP
smiles,measurement,setting,value
"CC(C)[C@@H](CN1CC[C@@](C)(c2cccc(O)c2)[C@@H](C)C1)NC(=O)[C@@]1(C)Cc2ccc(O)cc2CN1 [RTI-5989-240, (3R)-7-Hydroxy-N-[(1S)-1-{[(3R,4R)-4-(3-hydroxyphenyl)-3,4-dimethylpiperidin-1-yl]methyl}-2-methylpropyl]-3-methyl-1,2,3,4-tetrahydroisoquinoline-3-carboxamide]",Kb,[1],3.6 nM
same,"μ, DAMGO Ke","[1]; inhibition of DAMGO-stimulated [35S]GTPγS binding, cloned human μ receptor",3.6 nM
same,Kb,[2],840 nM
same,Kb,[3],0.03 nM
same,potency for the kappa opioid receptor (in words),[3]; [35S]GTPγS in vitro functional assay,high potency
same,selectivity for the kappa opioid receptor relative to mu and delta (in words),[3]; functional assay,highly selective
same,"κ, U69,593 Ke","[3]; inhibition of U69,593-stimulated [35S]GTPγS binding, cloned human κ receptor",0.03 nM
same,δ/κ,"[3]; ratio of Ke values, δ over κ","28,000"
same,μ/κ,"[3]; ratio of Ke values, μ over κ",120
